Our source for the melting point values is a melting point compilation (Tetko et al.; mined from patent text by program, amines drawn as free bases though some values may be those of a salt).

Turning to `CCNCC1CCN(c2nc3c(cc2F)c(=O)c(C(=O)O)cn3C2CC2)C1` (stereo not drawn), the melting point – broadly, the temperature, or range, at which the solid turns liquid – was 268 to 270 °C.

Take `OC1CSC(Oc2cnccc2-c2ccc(C(F)(F)F)cc2)C(O)C1O` (stereo not drawn): the melting point is 204 °C.

The molecule `CON(C)C(=O)Nc1c(C(=O)c2occc2CO)[nH]c2cc(Cl)ccc12` yielded a melting point of 221 to 222 °C.

`CC(C)(C)c1cc(SCCC(=O)NC2C3CC4CC(C3)CC2C4)cc(C(C)(C)C)c1O` (stereo not drawn) returned a melting point of 156 °C.

For `CNC(=O)c1cnn(-c2ccccn2)c1C#N`, the melting point lay in the range of 200 to 202 °C.

Take `CCCC(CC(=O)NC(=O)OC(C)(C)C)Nc1ccc(C)cc1` (stereo not drawn): the melting point was in the range of 63 to 64 °C.

The molecule `CN(C)C=C(C(=O)C(=O)c1ccccc1)c1ccc(C(=O)O)cc1` returned a melting point of 208 to 209 °C.

Molecule `Nc1cccc(Nc2cccc(N)n2)n1` came in with a melting point of 171 to 173 °C.

`CCc1cc(C=O)c(O)c(S(C)(=O)=O)c1` showed a melting point of 114 to 116 °C.

Molecule `COc1c(C)oc2c(-n3c(=O)cc(C(F)(F)F)n(C)c3=O)c(F)cc(Cl)c12` registered a melting point of 57 to 60 °C.

`Cc1ccc(CN(Cc2ccc(C)cc2)c2nccc(-c3ccc(-c4ccc(N(c5ccccc5)c5ccccc5)cc4)cc3)n2)cc1` registered a melting point of 153 to 154 °C.

On to `COc1ccc(Br)c(O)c1C(=O)O`, for which the melting point fell in the range of 143 to 144 °C.

In turn, `CN1CCN(c2cc3ccccc3c(=O)[nH]2)CC1CO` (stereo not drawn) had a melting point of 173 to 174 °C.

`Cc1nnc(-c2ncn3c2[C@@H]2CCCN2C(=O)c2c(Cl)cccc2-3)o1`: the melting point lay in the range of 253 to 254 °C.

With `CCc1cc(OCc2ccc3oc(-c4ccccc4C(=O)O)nc3c2)c2c(n1)CCCC2`, the melting point lay in the range of 229 to 231 °C.

The molecule `CCOc1cc2c(cc1OCC)[C@@H]1CN(C)CC[C@@H]1N=C2c1ccc(NS(=O)(=O)c2ccc(C)cc2)cc1` came in with a melting point of 267 to 268 °C.

The molecule `O=C(CCC(=O)N1CCC(c2ccc(Cl)cc2)CC1)c1ccc2c(c1)CNC2` gave a melting point of 133 to 134 °C.

Molecule `CCOC(=O)CCn1cnc2c1N=CNC2N` (stereo not drawn) returned a melting point of 166 to 167 °C.

With `COC(=O)CON=C(C(=O)O)C(=O)CCl`, the melting point lay in the range of 127 to 128 °C.

`COc1ccc([N+](=O)[O-])c(CC#N)n1` displayed a melting point of 116 to 117 °C.

Take `CCOc1ccc(NC(N)=S)cn1`: the melting point was in the range of 142 to 146 °C.

Regarding `CN(C)S(=O)(=O)OCCOc1ccc(-n2ccnc2)cc1`, the melting point was 120 to 123 °C.

In the case of `O=C(NC1CCC1)c1ccc(-c2ccc3nnn(Cc4ccc5ncccc5c4)c3n2)cc1F`, the melting point fell in the range of 171 to 174 °C.

The molecule `CCCCCCCOc1cc2c(cc1/C(C)=C/c1ccc(C(=O)O)cc1)C(C)(C)CCCS2(=O)=O` registered a melting point of 153 to 154 °C.

In turn, `Oc1ccc(-c2cc3cc(O)cc(CBr)c3o2)cc1` registered a melting point of 337 to 339 °C.

The molecule `NS(=O)(=O)c1cc2c(s1)S(=O)(=O)N(CCO)C(CN1CCOCC1)=C2` gave a melting point of 104 to 108 °C.

With `CN(C)c1ccc(N=Nc2ccc(S(=O)(=O)NCc3ccc4c(c3)-c3n[nH]c(=O)c5cccc(c35)O4)cc2)cc1`, the melting point is above 300 °C.

Molecule `Clc1c(Cl)c(Cl)c2c(nc(Cl)n2COCCOCc2ccccc2)c1Cl` yielded a melting point of 95 °C.

`NC1c2ccccc2CC2CCCCC21` (stereo not drawn) returned a melting point of 37 to 39 °C.

Molecule `COc1ccc2c(c1)C(=O)CC1(CCN(SCCc3cc(=O)n(C)c(=O)n3C)CC1)O2` gave a melting point of 191 to 194 °C.

Molecule `CCCN(CCC)CC1CCCCN1CCNC(=O)N1c2ccccc2C(=O)Nc2cccnc21` (stereo not drawn) displayed a melting point of 165 °C.

For `O=C(CN1CC(c2ccc(F)cc2)CC1=O)ON1C(=O)CCC1=O` (stereo not drawn), the melting point was 120 to 123 °C.

Regarding `N#CCCNC(=O)c1cccc(-c2cccc3cc(Cc4cccc(C(F)(F)F)c4)[nH]c23)c1`, the melting point lay within 174 to 178 °C.

Molecule `CN1C(=O)C2(CCCC2(C)C)c2ccccc21` (stereo not drawn) had a melting point of 99 to 101 °C.

`CCSc1ccc(C(=O)NCc2ccc3c(c2)C(=O)N(C2(C)CCC(=O)NC2=O)C3=O)cc1` (stereo not drawn): the melting point was 135 to 137 °C.

With `CC1(c2ccccc2)Cc2cc(OCC(=O)O)c(Cl)c(Cl)c2C1=O` (stereo not drawn), the melting point was in the range of 168 to 169 °C.

As for `CCNC1(c2ccccc2Cl)C(=O)N(Cc2ccc(C(=O)NC(C)(C)CO)cc2)c2ccc(Cl)cc21` (stereo not drawn), the melting point lay within 170 to 172 °C.

With `CC=CCn1c(C)c(C)c2cnnc(OCc3ccc(F)cc3)c21`, the melting point fell in the range of 93 to 103 °C.

For the molecule `CCOC(=O)c1cc(OC)c(C)cc1N`, the melting point lay in the range of 60 to 62 °C.

In the case of `CC1=NC(C)(C)SC1=NOC(=O)N(C)SN(C)C(=O)F`, the melting point was 77 to 79 °C.

`Cc1cc(-c2oncc2CCl)ccc1Cl` gave a melting point of 84 to 85 °C.

Consider `NC(=O)N(O)CC#CCOc1cccc(Oc2ccccc2)c1`, for which the melting point was in the range of 105 to 107 °C.

Regarding `CCCCS(=O)(=O)Nc1ccccc1Oc1ccc2ncccc2c1`, the melting point fell in the range of 131 to 133 °C.

Take `COc1ccc(-c2cc(CN(C)C)c(=O)n(Cc3ccc(F)c(F)c3)n2)cc1F`: the melting point stood at 130 °C.

In the case of `CCCn1nc(C2CC2)c(C(=O)OCC)c1Cc1ccc(-c2ccccc2-c2nnn(C(c3ccccc3)(c3ccccc3)c3ccccc3)n2)cc1`, the melting point is 154 to 159 °C.

`Cc1ccc(F)cc1C1CC(=O)CC(=O)C1` came in with a melting point of 175 to 176 °C.

Regarding `CC(C)C(NC(=O)NCc1cccnc1)C(=O)NC(Cc1ccccc1)C(O)C(Cc1ccccc1)NC(=O)C(NC(=O)NCc1cccnc1)C(C)C` (stereo not drawn), the melting point is 238 to 239 °C.

For `CC1(c2ccc(Oc3nc4ccc(Cl)cc4s3)cc2)OC(=O)N(Nc2ccccc2)C1=O` (stereo not drawn), the melting point lay in the range of 207 to 209 °C.

For the molecule `COc1ccc(CCNC(=O)N(C)O)c(OC)c1`, the melting point was in the range of 83 to 84 °C.

For `c1ccc(C2(n3ccnc3)c3ccccc3C(c3ccccc3)(n3ccnc3)c3ccccc32)cc1` (stereo not drawn), the melting point was in the range of 258 to 260 °C.

As for `COc1cc(C)c(C(=O)O)c(OC)c1OC`, the melting point lay in the range of 95 to 97 °C.

For the molecule `CC(C)C[C@H](NCc1ccc(C(C)(C)C)cc1)C(=O)N1CCN(C(c2ccc(F)cc2)c2ccc(F)cc2)CC1`, the melting point lay in the range of 57 to 62 °C.

For `O=[N+]([O-])c1cccc(-c2cccc([N+](=O)[O-])c2)c1`, the melting point is 200 °C.

The molecule `COC1=CC(=O)CC(NC(=O)Nc2ccccc2)C1` (stereo not drawn) gave a melting point of 183 to 185 °C.

For the molecule `CC(C)(C)[Si](C)(C)OCCn1nc(CO)cc1CO`, the melting point fell in the range of 82 to 83 °C.

`O=C1Nc2ccc(-c3cccc(Cl)c3)cc2C2(CCCC2)O1`: the melting point is 140 to 145 °C.

Molecule `N#Cc1cc(Br)c(OC(=O)OCCl)c(Br)c1` showed a melting point of 83 to 85 °C.

Turning to `CSc1cc(C)nc(SC)c1NC(=O)CN1CCN(CCSc2nc3ccccc3[nH]2)CC1`, the melting point fell in the range of 96 to 97 °C.

With `CC1=C(C)C(=O)N(C2CCC(O)CC2)C1=O` (stereo not drawn), the melting point lay within 109 to 111 °C.

`NC(=O)Oc1ccc2c(c1)[nH]c(=O)c1c3ccc(OC(N)=O)cc3oc21`: the melting point is 215 to 220 °C.

`N#Cc1ccc(-c2cn(-c3ccc(I)cc3)c(SCc3ccncc3)n2)cc1` displayed a melting point of 155 to 162 °C.

In turn, `Cc1cc(OCC(F)(F)F)c(NC(=O)CN2CCN(CCSc3nc4ccccc4o3)CC2)c(OCC(F)(F)F)n1` displayed a melting point of 141 to 142 °C.

Regarding `COc1cc(OCc2ccccn2)ccc1/C=C/c1cc(/C=C/c2ccc3cc[nH]c3c2)n[nH]1`, the melting point lay within 237 to 239 °C.

`O=C(O)C(O)Cn1nnnc1S` (stereo not drawn): the melting point was 143 to 146 °C.

For the molecule `CCCNC(=O)C1(CCCc2ccc(N3C(=O)c4ccccc4C3=O)cc2)c2ccccc2-c2ccccc21`, the melting point is 148 to 151 °C.

The molecule `C=CCn1c(-c2cccnc2)n[nH]c1=O` came in with a melting point of 120 to 125 °C.

For `Cn1c(=O)n2nc(CO)cc2c2ccccc21`, the melting point was 183 to 184 °C.

The molecule `CCOc1cc(O)c(C(=O)C=Cc2ccc(OC)cc2)c(OC)c1` showed a melting point of 122 °C.

As to `O=C(O)C(Cc1ccccc1)NCC1c2c(c3ccccc3c3ccccc23)-c2c1c1ccccc1c1ccccc21` (stereo not drawn), the melting point fell in the range of 178 to 180 °C.

Regarding `COc1ccccc1[Si](C)(C)COc1cc(C(C)(C)C)c(O)c(C(C)(C)C)c1`, the melting point was in the range of 89 to 90 °C.

Molecule `COC(=O)c1cccnc1Cn1cccc1C=O` yielded a melting point of 91 to 93 °C.

Molecule `CCN(Cc1cc(Br)ccc1OCC1CC1)c1ccc(C(=O)O)cn1` registered a melting point of 175 to 177 °C.

For `O=C(O)[C@@H]1CCCN1C(=O)CCCS`, the melting point lay within 157 to 158 °C.

As to `COc1ccccc1CC1NC(=O)NC1=O` (stereo not drawn), the melting point is 186 °C.

Molecule `CC(C)(C)CNc1nc(Cl)cc(N2CCCC2)n1` displayed a melting point of 147 to 150 °C.

Consider `COC(=O)c1cc2c3cc(Cl)ccc3n(C)c2s1`, for which the melting point fell in the range of 188 to 190 °C.

`COc1cccc(C(O)CN(C)Cc2cc3c(=O)c(C(=O)NCc4ccc(Cl)cc4)cn(C)c3o2)c1` (stereo not drawn) registered a melting point of 116 to 120 °C.

`COc1cc2c(c3c1C1CCC3CC1)OC(CN)C2` (stereo not drawn) yielded a melting point above 210 °C.

In turn, `CCC(C)(CCCCCCC(C)(CC)C(=O)O)C(=O)O` (stereo not drawn) showed a melting point of 117 to 118 °C.

Consider `O=C(Cc1ccc(Oc2ccc(C(F)(F)F)cn2)cc1)Nc1ccncc1`, for which the melting point was 167 to 170 °C.

As for `CC(C)Sc1ccoc1C(=O)Nc1nnn[nH]1`, the melting point was in the range of 201 to 203 °C.

Molecule `CCC(=O)NC[C@H]1CN(c2ccc(N3CCC(=CC#N)CC3)c(F)c2)C(=O)O1` had a melting point of 200 to 202 °C.

`O=C(O)C(=O)c1cn(Cc2ccc(F)cc2)c2ccc(-c3ccc(OC(F)(F)F)cc3)cc12` returned a melting point of 158 to 159 °C.

Regarding `Cc1cc(-c2cccc(C(F)(F)F)c2)nn2c(C)nnc12`, the melting point was in the range of 196 to 198 °C.

`CCOc1nn(CCOc2ccc3ccccc3c2CC(=O)O)cc1C(=O)NCc1ccc(Cl)cc1Cl`: the melting point lay in the range of 199 to 201 °C.

In turn, `CN1CCN(c2cc(F)cc3c(=O)cc(C(=O)Nc4ccc(N5CCN(C(=O)OC(C)(C)C)CC5)cc4)oc23)CC1` displayed a melting point of 219 to 220 °C.

For `O=c1c(-c2ccc(Cl)cc2)coc2cc(O)c(O)cc12`, the melting point is 299 °C.

On to `O=C(O)Cn1cc(Cc2nc3c(F)c(F)cc(F)c3s2)c2c(Cl)cccc21`, for which the melting point lay in the range of 203 to 206 °C.
